The record followed here is US9828393B2, “Silylalkyloxyaryl compounds and methods for treating cancer” (THE REGENTS OF THE UNIVERSITY OF COLORADO, a body corporate, priority 2013, dated 2017).

The term GI50 denotes the concentration giving 50% growth inhibition.

Common to all, as to format: cell-based, human
In assay [1] the test system is MALME-3M. Briefly: NCI-60 cell line screen (SRB), MALME-3M. To be noted: Melanoma; MALME-3M; 48 h drug incubation; read-out: GI50. On the procedure:
(§1) Drug sensitivity data are provided as GI50s (concentrations required to inhibit growth by 50%). The first row of the text file identifies cell lines, separated by tabs. Subsequent rows contain compound number, compound name, and GI50 for each cell line, each separated by a tab. […] For a typical screening experiment, cells are inoculated into 96 well microtiter plates in 100 μL at plating densities ranging from 5,000 to 40,000 cells/well depending on the doubling time of individual cell lines. After cell inoculation, the microtiter plates are incubated at 37° C., 5% CO2, 95% air and 100% relative humidity for 24 h prior to addition of experimental drugs. After 24 h, two plates of each cell line are fixed in situ with TCA, to represent a measurement of the cell population for each cell line at the time of drug addition (Tz). Experimental drugs are solubilized in dimethyl sulfoxide at 400-fold the desired final maximum test concentration and stored frozen prior to use. At the time of drug addition, an aliquot of frozen concentrate is thawed and diluted to twice the desired final maximum test concentration with complete medium containing 50 μg/ml gentamicin. Additional four, 10-fold or one-half log serial dilutions are made to provide a total of five drug concentrations plus control. Aliquots of 100 μl of these different drug dilutions are added to the appropriate microtiter wells already containing 100 μl of medium, resulting in the required final drug concentrations. Following drug addition, the plates are incubated for an additional 48 h at 37° C., 5% CO2, 95% air, and 100% relative humidity. For adherent cells, the assay is terminated by the addition of cold TCA. Cells are fixed in situ by the gentle addition of 50 μl of cold 50% (w/v) TCA (final concentration, 10% TCA) and incubated for 60 minutes at 4° C. The supernatant is discarded, and the plates are washed five times with tap water and air dried. Sulforhodamine B (SRB) solution (100 μl) at 0.4% (w/v) in 1% acetic acid is added to each well, and plates are incubated for 10 minutes at room temperature. After staining, unbound dye is removed by washing five times with 1% acetic acid and the plates are air dried. Bound stain is subsequently solubilized with 10 mM trizma base, and the absorbance is read on an automated plate reader at a wavelength of 515 nm. For suspension cells, the methodology is the same except that the assay is terminated by fixing settled cells at the bottom of the wells by gently adding 50 μl of 80% TCA (final concentration, 16% TCA). Using the seven absorbance measurements [time zero, (Tz), control growth, (C), and test growth in the presence of drug at the five concentration levels (Ti)], the percentage growth is calculated at each of the drug concentrations levels. […]

Assay [2] concerns HCT-15. Kind of assay: NCI-60 cell line screen (SRB), HCT-15. To be noted: Colon Cancer; HCT-15; 48 h drug incubation; read-out: GI50. As to the method: as §1
Assay [3] concerns NCI-H522. Briefly: NCI-60 cell line screen (SRB), NCI-H522. To be noted: Non-Small Cell Lung Cancer; NCI-H522; 48 h drug incubation; read-out: GI50. As to the method:
as §1

For assay [4], the system named is RXF 393. Kind of assay: NCI-60 cell line screen (SRB), RXF 393. To be noted: Renal Cancer; RXF 393; 48 h drug incubation; read-out: GI50. As to the method: as §1
Assay [5] concerns RPMI-8226. Kind of assay: NCI-60 cell line screen (SRB), RPMI-8226. To be noted: Leukemia; RPMI-8226; 48 h drug incubation; read-out: GI50. As to the method: as §1
Assay [6] deals with HOP-92. Kind of assay: NCI-60 cell line screen (SRB), HOP-92. To be noted: Non-Small Cell Lung Cancer; HOP-92; 48 h drug incubation; read-out: GI50. On the procedure:
as §1

Assay [7] relates to SF-539. Kind of assay: NCI-60 cell line screen (SRB), SF-539. To be noted: CNS Cancer; SF-539; 48 h drug incubation; read-out: GI50. On the procedure: as §1
In assay [8] the test system is U-251. Kind of assay: NCI-60 cell line screen (SRB), U-251. To be noted: CNS Cancer; U-251; 48 h drug incubation; read-out: GI50. On the procedure:
as §1

The test system of assay [9] is CCRF-CEM. Briefly: NCI-60 cell line screen (SRB), CCRF-CEM. To be noted: Leukemia, 48 h drug incubation, read-out: GI50. As to the method: as §1
Assay [10] deals with MDA-MB-231/ATCC. Kind of assay: NCI-60 cell line screen (SRB), MDA-MB-231/ATCC. To be noted: Breast Cancer; MDA-MB-231/ATCC; 48 h drug incubation; read-out: GI50. On the procedure: as §1
Assay [11] relates to HCC-2998. Kind of assay: NCI-60 cell line screen (SRB), HCC-2998. To be noted: Colon Cancer; HCC-2998; 48 h drug incubation; read-out: GI50. On the procedure:
as §1

Assay [12] has as its system Breast Cancer cell lines. Kind of assay: NCI-60 cell line screen, Breast Cancer panel average. To be noted: average over Breast Cancer panel; read-out: GI50 Average. As to the method:
as §1

The subject of assay [13] is SK-MEL-28. Briefly: NCI-60 cell line screen (SRB), SK-MEL-28. To be noted: Melanoma; SK-MEL-28; 48 h drug incubation; read-out: GI50. On the procedure:
as §1

The subject of assay [14] is Colon Cancer cell lines. Briefly: NCI-60 cell line screen, Colon Cancer panel average. To be noted: average over Colon Cancer panel; read-out: GI50 Average. On the procedure: as §1
The subject of assay [15] is UACC-62. Briefly: NCI-60 cell line screen (SRB), UACC-62. To be noted: Melanoma; UACC-62; 48 h drug incubation; read-out: GI50. As to the method:
as §1

The subject of assay [16] is SNB-19. Briefly: NCI-60 cell line screen (SRB), SNB-19. To be noted: CNS Cancer; SNB-19; 48 h drug incubation; read-out: GI50. As to the method:
as §1

Assay [17] deals with NCI/ADR-RES. Kind of assay: NCI-60 cell line screen (SRB), NCI/ADR-RES. To be noted: Ovarian Cancer, 48 h drug incubation, read-out: GI50. On the procedure:
as §1

For assay [18], the system named is SK-MEL-2. Kind of assay: NCI-60 cell line screen (SRB), SK-MEL-2. To be noted: Melanoma; SK-MEL-2; 48 h drug incubation; read-out: GI50. As to the method: as §1
Assay [19] concerns M14. Kind of assay: NCI-60 cell line screen (SRB), M14. To be noted: Melanoma; M14; 48 h drug incubation; read-out: GI50. As to the method:
as §1

The test system of assay [20] is SW-620. Kind of assay: NCI-60 cell line screen (SRB), SW-620. To be noted: Colon Cancer; SW-620; 48 h drug incubation; read-out: GI50. On the procedure:
as §1

In assay [21] the test system is OVCAR-4. Briefly: NCI-60 cell line screen (SRB), OVCAR-4. To be noted: Ovarian Cancer; OVCAR-4; 48 h drug incubation; read-out: GI50. On the procedure:
as §1

Assay [22] concerns Prostate Cancer cell lines. Briefly: NCI-60 cell line screen, Prostate Cancer panel average. To be noted: average over Prostate Cancer panel; read-out: GI50 Average. On the procedure:
as §1

The subject of assay [23] is NCI-H226. Briefly: NCI-60 cell line screen (SRB), NCI-H226. To be noted: Non-Small Cell Lung Cancer; NCI-H226; 48 h drug incubation; read-out: GI50. On the procedure:
as §1

For the compound `CCOP(=O)(OCC)C(NC(=O)[C@H](Cc1ccc(-c2ccccc2)cc1)NC(=O)c1ccc(OCCC[Si](C)(C)C)cc1)P(=O)(OCC)OCC` [GH1505, N^α-{4-[3-(trimethylsilyl)propoxy]-benzoyl}-N-[bis(dietoxyphosphoryl)methyl]-(4-phenyl-L-phenylalaninamide)], the GI50 in assay [1] amounted to 1.93 µM; in assay [2], 2.25 µM; in assay [3], 2.02 µM; in assay [4], 1.87 µM; in [5], 1.97 µM; in assay [6] it was 2.09 µM. Besides, the GI50 in [7] was determined as 1.82 µM; in assay [8], 2.09 µM; in assay [9] it was 2.78 µM; in assay [10], 1.62 µM; in assay [11], 2.02 µM; in assay [12], 2.17 µM. The GI50 in assay [13] worked out at 1.76 µM; in assay [14] it was 2.12 µM; in [15], 1.62 µM; in assay [16], 2.06 µM; in assay [17], 3.31 µM; in assay [18], 2.11 µM. Further, the GI50 in assay [19] worked out at 2.1 µM; in assay [20], 2.19 µM; in assay [21], 2.54 µM; in [22], 2.02 µM; in assay [23] it was 1.84 µM.
